Laboratory results as given in patent publication US8361796B2, “Method for generating primate cardiovascular progenitor cells for clinical use from primate embryonic stem cells or embryonic-like state cells, and their applications” (Assistance Publique—Hopitaux de Paris, priority 2008, dated 2013).

Tests used:
[1] = molecular target: fibroblast growth factor receptor 1 (FGFR1) (Homo sapiens, UniProt P11362); details: read-out: IC50, tyrosine kinase activity of FGFR1; in the presence of 1 mM ATP; cited from earlier work
Chain of fibroblast growth factor receptor 1 (FGFR1) (P11362 22-822, species assumed): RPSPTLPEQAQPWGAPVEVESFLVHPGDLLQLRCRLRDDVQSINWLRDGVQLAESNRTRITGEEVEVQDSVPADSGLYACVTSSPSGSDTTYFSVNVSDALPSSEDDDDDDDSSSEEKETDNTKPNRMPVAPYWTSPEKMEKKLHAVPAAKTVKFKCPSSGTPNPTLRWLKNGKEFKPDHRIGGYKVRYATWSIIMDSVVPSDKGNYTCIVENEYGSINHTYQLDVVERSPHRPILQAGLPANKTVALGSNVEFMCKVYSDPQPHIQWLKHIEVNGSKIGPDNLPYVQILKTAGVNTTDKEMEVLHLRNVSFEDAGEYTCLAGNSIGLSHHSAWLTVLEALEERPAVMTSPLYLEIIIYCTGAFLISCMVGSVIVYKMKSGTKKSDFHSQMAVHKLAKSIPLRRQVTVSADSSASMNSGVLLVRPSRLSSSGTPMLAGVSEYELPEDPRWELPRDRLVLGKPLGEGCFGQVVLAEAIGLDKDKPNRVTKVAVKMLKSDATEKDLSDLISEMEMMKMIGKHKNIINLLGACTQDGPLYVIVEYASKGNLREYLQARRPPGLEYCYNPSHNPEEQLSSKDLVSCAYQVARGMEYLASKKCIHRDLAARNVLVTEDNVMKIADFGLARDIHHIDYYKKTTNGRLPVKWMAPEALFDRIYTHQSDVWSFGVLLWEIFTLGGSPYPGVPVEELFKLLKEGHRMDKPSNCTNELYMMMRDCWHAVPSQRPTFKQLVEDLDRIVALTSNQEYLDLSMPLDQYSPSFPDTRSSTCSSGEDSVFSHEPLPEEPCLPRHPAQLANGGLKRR

[2] = molecular target: insulin receptor (Homo sapiens, UniProt P06213); details: cited from earlier work
Chain of insulin receptor (P06213 28-1382, species assumed): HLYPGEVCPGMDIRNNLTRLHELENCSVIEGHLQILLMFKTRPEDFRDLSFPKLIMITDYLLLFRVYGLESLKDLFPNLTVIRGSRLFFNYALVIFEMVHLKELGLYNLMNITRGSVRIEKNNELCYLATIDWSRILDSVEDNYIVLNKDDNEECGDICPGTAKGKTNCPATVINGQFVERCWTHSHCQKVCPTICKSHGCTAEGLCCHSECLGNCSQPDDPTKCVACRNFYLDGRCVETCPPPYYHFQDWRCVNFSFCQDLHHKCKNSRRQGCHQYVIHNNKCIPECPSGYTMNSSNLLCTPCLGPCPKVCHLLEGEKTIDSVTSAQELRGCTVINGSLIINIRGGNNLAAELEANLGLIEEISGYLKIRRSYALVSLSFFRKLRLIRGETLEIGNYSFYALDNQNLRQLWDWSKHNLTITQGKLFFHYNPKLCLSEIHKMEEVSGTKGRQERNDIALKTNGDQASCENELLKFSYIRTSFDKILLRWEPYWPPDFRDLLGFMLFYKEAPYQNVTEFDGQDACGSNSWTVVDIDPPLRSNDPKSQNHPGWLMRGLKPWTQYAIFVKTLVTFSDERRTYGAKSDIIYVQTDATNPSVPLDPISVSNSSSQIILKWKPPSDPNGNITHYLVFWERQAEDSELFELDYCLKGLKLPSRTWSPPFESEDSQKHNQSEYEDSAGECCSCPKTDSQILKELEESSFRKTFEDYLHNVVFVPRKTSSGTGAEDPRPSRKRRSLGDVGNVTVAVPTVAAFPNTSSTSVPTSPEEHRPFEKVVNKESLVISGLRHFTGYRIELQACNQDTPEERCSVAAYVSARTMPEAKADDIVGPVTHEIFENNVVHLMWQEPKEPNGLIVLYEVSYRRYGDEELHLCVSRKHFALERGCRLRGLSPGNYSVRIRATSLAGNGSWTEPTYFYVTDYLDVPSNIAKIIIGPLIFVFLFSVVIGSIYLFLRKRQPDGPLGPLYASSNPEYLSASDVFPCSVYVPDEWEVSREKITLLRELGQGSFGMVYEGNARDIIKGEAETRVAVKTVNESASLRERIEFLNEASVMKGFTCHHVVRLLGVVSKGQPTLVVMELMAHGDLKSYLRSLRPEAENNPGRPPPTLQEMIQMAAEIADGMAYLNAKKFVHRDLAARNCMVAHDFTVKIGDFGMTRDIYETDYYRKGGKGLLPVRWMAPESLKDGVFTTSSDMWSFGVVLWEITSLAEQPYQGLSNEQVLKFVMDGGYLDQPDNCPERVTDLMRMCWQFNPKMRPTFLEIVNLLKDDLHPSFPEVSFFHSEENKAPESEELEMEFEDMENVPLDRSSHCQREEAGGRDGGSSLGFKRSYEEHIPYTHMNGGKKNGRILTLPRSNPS

[3] = molecular target: EGF receptor (Homo sapiens, UniProt P00533); details: cited from earlier work
Chain of EGF receptor (P00533 25-1210): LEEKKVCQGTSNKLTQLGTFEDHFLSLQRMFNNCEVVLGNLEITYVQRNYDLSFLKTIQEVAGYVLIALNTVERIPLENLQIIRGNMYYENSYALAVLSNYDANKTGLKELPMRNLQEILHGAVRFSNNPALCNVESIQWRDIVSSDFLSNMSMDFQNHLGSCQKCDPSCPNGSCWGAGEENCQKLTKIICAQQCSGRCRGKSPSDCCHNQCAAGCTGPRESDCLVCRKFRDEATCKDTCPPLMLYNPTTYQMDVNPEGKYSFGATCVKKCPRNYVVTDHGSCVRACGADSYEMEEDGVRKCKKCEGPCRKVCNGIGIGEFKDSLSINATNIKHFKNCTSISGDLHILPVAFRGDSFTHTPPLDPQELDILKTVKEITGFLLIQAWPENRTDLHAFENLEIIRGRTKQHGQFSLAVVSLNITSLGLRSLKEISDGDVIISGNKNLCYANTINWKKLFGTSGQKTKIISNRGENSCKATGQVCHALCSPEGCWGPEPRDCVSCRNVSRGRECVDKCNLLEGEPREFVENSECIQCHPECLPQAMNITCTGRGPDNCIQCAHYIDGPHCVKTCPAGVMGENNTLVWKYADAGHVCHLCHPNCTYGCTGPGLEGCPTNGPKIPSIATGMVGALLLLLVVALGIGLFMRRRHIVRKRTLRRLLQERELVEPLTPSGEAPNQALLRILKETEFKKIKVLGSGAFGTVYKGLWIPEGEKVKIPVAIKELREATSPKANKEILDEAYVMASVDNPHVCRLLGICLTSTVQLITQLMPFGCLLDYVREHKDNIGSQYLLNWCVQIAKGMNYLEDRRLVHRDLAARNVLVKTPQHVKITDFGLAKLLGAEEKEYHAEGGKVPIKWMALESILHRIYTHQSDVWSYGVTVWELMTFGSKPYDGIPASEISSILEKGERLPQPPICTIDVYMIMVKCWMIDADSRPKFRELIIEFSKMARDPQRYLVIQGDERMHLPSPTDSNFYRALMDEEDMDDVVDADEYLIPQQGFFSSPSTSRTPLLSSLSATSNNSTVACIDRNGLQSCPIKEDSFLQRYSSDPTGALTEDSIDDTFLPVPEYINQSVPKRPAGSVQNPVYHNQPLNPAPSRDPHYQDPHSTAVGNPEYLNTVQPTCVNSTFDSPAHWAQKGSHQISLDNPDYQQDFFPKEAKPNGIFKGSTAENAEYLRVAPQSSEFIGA

[4] = test system: HUES-1 cells
Procedure: HES cells were treated for 48 hrs with 10 ng/ml BMP2 in the presence or absence of 1 μM SU5402, a FGF receptor inhibitor, in low KO™SR (5%) containing KO™-DMEM.
Gene induction was tested using real time Q-PCR.

[5] = test system: PDGF receptor; details: cited from earlier work
[6] = test system: ERK1 and ERK2; details: read-out: IC50, aFGF-induced tyrosine phosphorylation of ERK1 and ERK2; cited from earlier work
[7] = test system: CD15+ cells; experiment: Differentiation of CD15+ sorted cells treated with VEGF or PDGF; assay type: cell-based, primate; details: 10 or 50 ng/ml
Procedure: FIGS. 11A, 11B and 11C: CD15+ cells express cardiac, endothelial and vascular proteins markers; CD15+ sorted cells were cultured for 5 days on MEF and immunostained with the indicated markers; some cells were treated with VEGF or PDGF and immunostained with anti smooth muscle actin and myosin or CD31. Some others were cultured with human fibroblast isolated from the myocardium and stained with an anti-actinin antibody.
When cultured on human cardiac fibroblasts, CD15+ cells differentiate into actinin-positive cardiomyocytes.

Row | Compound | IC50 [1] | inhibition of phosphorylation of the insulin receptor [2] | inhibition of the kinase activity of the EGF receptor [3] | enhancement of BMP2 induction of mesodermal and cardiac genes ([4]; 48 hrs, 10 ng/ml BMP2 with 1 μM SU5402 versus BMP2 alone) | enhancement of BMP2 instructive action ([4]; defined (KOSR) medium, SU5402 added to BMP2) | inhibition of tyrosine phosphorylation of the PDGF receptor [5] | IC50 [6] | fate of CD15+ cells [7]
1 | Cc1c[nH]c(C=C2C(=O)Nc3ccccc32)c1CCC(=O)O [SU5402, 3-[3-(2-Carboxyethyl)-4-methylpyrrol-2-methylidenyl]-2-indolinone] | 10 to 20 µM | does not inhibit | does not inhibit | 3-10 folds | dramatically enhanced | only a weak inhibitor | 10 to 20 µM | 
2 | PDGF |  |  |  |  |  |  |  | smooth muscle cells
3 | VEGF |  |  |  |  |  |  |  | endothelial
